In one data set the test system is HeLa (human cervical). The experiment in a line: Cytotoxicity, fluorometric cell viability assay (resazurin), HeLa. Format: cell-based. The conditions noted are these: 48 h incubation, read-out: IC50 (μM) HeLa. As to the method:
(§1) HeLa and CT-26 cell lines were cultured in DMEM media (Gibco) supplemented with 10% of fetal calf serum (Gibco). CT-26 LUC cell line was cultured in DMEM media (Gibco) supplemented with 10% of fetal calf serum (Gibco) and 1% Genticin. RPE-1 cell line was cultured in DMEM/F-12 media (Gibco) supplemented with 10% of fetal calf serum. […] The resistance of A2780 cis was maintained by cisplatin treatment (1 μM) for one week every month. […] U87 cell line was cultured in MEM media (Gibco) supplemented with 10% of fetal calf serum (Gibco) and 1% of non-essential amino acid mixture (Gibco). Cell lines were complemented with 100 U/ml penicillin-streptomycin mixture (Gibco) and maintained in humidified atmosphere at 37° C. and 5% of CO2.
(§2) Cytotoxicity of the tested Ru compounds according to the present invention was assessed by a fluorometric cell viability assay using Resazurin (ACROS Organics). […] After 24 h, cells were treated with increasing concentrations of the compounds. Compounds dilutions were prepared as follows: 2.5 mM stock in DMSO was further diluted to 100 μM with media and then filtrated. After 48 h incubation, medium was removed, and 100 μl of complete medium containing resazurin (0.2 mg/ml final concentration) was added. […] IC50 values were then calculated using GraphPad Prism software.
Background: Alamar Blue is a resazurin reagent that responds to reducing activity.

Data set [1] has as its system A2780 (human ovarian carcinoma). The experiment in a line: Cytotoxicity, fluorometric cell viability assay (resazurin), A2780. The following applies: A2780, 48 h incubation; read-out: IC50 (μM) A2780. Format: cell-based. The method, then: as §1, §2
Data set [2] deals with A2780 ADR (human doxorubicin resistant ovarian carcinoma). The experiment in a line: Cytotoxicity, fluorometric cell viability assay (resazurin), A2780 ADR. The class given is cell-based. The conditions noted are these: A2780 ADR (doxorubicin resistant), 48 h incubation; read-out: IC50 (μM) A2780 ADR. As to the method: as §1, §2
For data set [3], the system named is A2780 cis (human cisplatin resistant ovarian carcinoma). Put plainly: Cytotoxicity, fluorometric cell viability assay (resazurin), A2780 cis. Format: cell-based. The following applies: A2780 cis (cisplatin resistant), 48 h incubation; read-out: IC50 (μM) A2780 cis. The method, then:
as §1, §2

Data set [4] has as its system CT-26 (mouse colon adenocarcinoma). Put plainly: Cytotoxicity, fluorometric cell viability assay (resazurin), CT-26. The following applies: CT-26, 48 h incubation; read-out: IC50 (μM) CT-26. Format: cell-based. The method, then: as §1, §2
Data set [5] deals with CT-26 LUC (mouse colon adenocarcinoma stably expressing luciferase). The experiment in a line: Cytotoxicity, fluorometric cell viability assay (resazurin), CT-26 LUC. The class given is cell-based. The following applies: CT-26 luc, 48 h incubation; read-out: IC50 (μM) CT-26 luc. As to the method:
as §1, §2

For data set [6], the system named is RPE-1 (normal retina pigmented epithelial). The experiment in a line: Cytotoxicity, fluorometric cell viability assay (resazurin), RPE-1. Format: cell-based. The conditions noted are these: RPE-1 normal cells, 48 h incubation; read-out: IC50 (μM) RPE-1. As to the method:
as §1, §2

Data set [7] relates to solid Ehrlich tumour. Put plainly: Survival of mice bearing solid Ehrlich tumour. The class given is in vivo. The following applies: 5 mg/kg i.p. on days 1 and 7, tumour-bearing NMRI mice.
Excerpt: A solid Ehrlich tumour was purchased from the Research Institute for Pharmacy and Biochemistry (VUFB) in Prague, and then maintained in NMRI mice by periodical transplantations. […] On the tenth day, half of the mice were sacrificed, and their tumours were weighed. The remaining animals were left in order to observe their survival.
One-Way Analysis of Variance with post-hoc Dunnetts's multiple comparison test was used to detect differences in tumour weight. Kaplan-Meier curves (FIG. 4) and logrank tests were used to compare survival times in groups. Here, the level of significance was α=0.05.
For data set [8], the system named is solid Ehrlich tumour. The experiment in a line: Tumour weight, solid Ehrlich tumour, day 10. The conditions noted are these: 5 mg/kg i.p. on days 1 and 7, measured on day 10.
Excerpt: Values are the means±SEM (n=7 in each group).
A solid Ehrlich tumour was purchased from the Research Institute for Pharmacy and Biochemistry (VUFB) in Prague, and then maintained in NMRI mice by periodical transplantations. […] On the tenth day, half of the mice were sacrificed, and their tumours were weighed.
One-Way Analysis of Variance with post-hoc Dunnetts's multiple comparison test was used to detect differences in tumour weight.
The nature of data set [9]: Encapsulation in polysorbate 80 (film rehydration). Format: physicochemical. The following applies: in 50 mg/mL of polysorbate 80 in PBS, after 0.20 μm filtration. As to the method: The solvent was removed by rotary evaporation at 40° C. The red film was then resuspended in PBS (2 mL) at room temperature. The solution was finally sterile filtered on a 0.20 μm nylon membrane (Corning© 431224) to yield a clear red solution.
50 μL of the sample was diluted in 100 μL of acetonitrile and the absorbance was recorded at 480 nm in 96 wells plates from Corning© (Fisher Scientific 15329740) using a SpectraMax M5 microplate Reader.
Encapsulation efficiency was calculated by comparing the absorbance of the solution before and after filtration using the following equation.
To ensure its repeatability, the procedure was performed in triplicate.

As usually defined, the IC50 is the concentration needed to halve the response being measured.

Take `N.N.[Cl][Pt][Cl]` [Cisplatin]: the IC50 in the data set with HeLa (human cervical) was 9.28 ± 0.2 µM; in [1], 4 ± 0.76 µM; in [2], 8.32 ± 0.71 µM; in data set [3], 18.3 ± 2.92 µM; in data set [4], 2.6 ± 0.18 µM; in data set [5], 2.42 ± 0.23 µM. Further, the IC50 in [6] came out at 30.2 ± 5.11 µM. Further, the “geometric mean of overall survival” value in the data set with solid Ehrlich tumour [7] is given as 33.7 days. For the same compound, in the data set on solid Ehrlich tumour [8], the “effect on tumour growth (tumour weight)” value was “significant inhibitory effect”.

Regarding “[Ru(DIP)2(3-Methoxysq)](PF6) [Compound 4]”, the concentration dissolved in data set [9] was 840 ± 60 µg/mL.

(Values after patent US20220242894A1, “Ruthenium (II) Complexes and Their Use as AntiCancer Agents” (Paris Sciences et Lettres, priority 2019, published 2022).)
